In patent US20040072824A1, “Methods and compositions for the treatment of cancer” (priority 2001, published 2004):
Counter-ions that a name gives are not always drawn. Like-named read-outs stand apart in the source and are kept apart here.

What was measured:
[1] = tested on: MDA-MB-231 (breast cancer line); test: Curative effects on palpable tumors, MDA-MB-231 cells in scid/scid mice; format: in vivo; settings: 11.25 mg/kg or 22.5 mg/kg daily once tumors palpable
Method: (§1) In this series of experiments, effects of various compounds of the present invention on tumor development were tested using two protocols. The first protocol is directed to the testing of curative effects of these compounds in different cell lines. In this protocol, cancerous cells are inoculated to the animals, and the inoculated animals were left without any further treatment until the development of tumors. As soon as the tumors became palable (4 mm^3), the compounds of this invention were administered daily to the animals.

U937 = format: in vivo; settings: treatment from day 1, cells inoculated after more than 24 hours, daily administration
Method: The second protocol was designed to test the preventive effects of the compounds of this invention on tumorigenesis. In this protocol, the animals have been treated with various compounds of the present invention on day 1. After more than 24 hours, tumoral cells were inoculated. The administration of the compounds of this invention was maintained daily. The cell line used for this test was U937.

LoVo cancer cells = test: Cytotoxicity on LoVo cancer cells; format: cell-based; settings: LoVo colorectal adenocarcinoma cells
Method: (§2) The cells were grown on their respective propagation medium and seeded 24 hours before the compounds are added. The cells were trypsinized, and 50,000 cells/well and 10,000 cells/well were seeded in order to read the plates at 48 hours and 144 hours after being treated by the compounds, respectively.
(§3) On the day of the treatment, the medium was replaced by 10 ml each of series dilution of the compounds, consisting of: control, which contained no compound of this invention; 1:100 dilution; 1:1,000 dilution; 1:2,000 dilution; and 1:5,000 dilution. The starting concentrations for these dilutions were: 50 mg/ml for compound A; 10 mg/ml for compound B; 25 mg/ml for compound C; and 5 mg/ml for compound D. The dilution was made using the growth medium.

[2] = tested on: Poly ADP-Ribose Polymerase (PARP); test: PARP cleavage in treated U937 cells (western blot); format: cell-based; settings: 24 hours
Method: U937 cells were treated with various concentrations of hydroxyzine and promethazine for 24 hours. The proteins were isolated from these cells and loaded onto a gel for a western blot analysis. A specific anti-PARP antibody was used to visualize the location of PARP.

U937 cells [3] = test: Antineoplastic activity, U937 cells injected in scid/scid mice, treatment from day 1; format: in vivo; settings: six mice
Method: Ten million U937 cells were subcutaneously injected into scid/scid mice. One injection was carried out per each of the 6 mice tested per set. The excipient or the compounds tested were administered intraperitoneally on day 1, i.e., the day of U937 cell line inoculation, of the experiment. The excipients or compounds were administered once daily. The tumor sizes were measured on day 5, day 8, day 12, day 14 and day 19 after the injection.

[4] = tested on: K562, U937, Jurkat, T47-D, MCF7, BT20 and 184B5 cell lines; test: Cytotoxicity in malignant and immortalized cell lines (manual counting, Alamar assay); format: cell-based; settings: for cytotoxic activity: dilutions greater than 1:1,000, especially about 1:10,000; for cytotoxicity: dilutions of from 1:100 to 1:1,000, 48 and 144 hours after treatment
Method: These four compounds were added at different concentrations to cultures of various malignant cell lines and normal cells. The cell lines used for these tests were the following:
All leukemic cell lines were grown and used in logarithmic phase. After one day of treatment, the cells were isolated, counted and diluted in a regular growth medium to provide the cell density of about 75×10^3 cells/ml for reading on plates at 48 hours after the treatment, and […] for reading at 144 hours after the treatment.
(§4) Several dilutions of each compound tested were added to the wells (12 wells per plate, TPP), and 1 ml of cells from the parent solution was added per well after a line had been completed. The dilutions were made using the culture medium, and following dilutions were tested: control, which contained no compound of this invention; 1:100; 1:1,000; 1:2,000; 1:5,000; and 1:10,000. The starting concentrations for these dilutions were: 50 mg/ml for compound A; 10 mg/ml for compound B; 25 mg/ml for compound C; and 5 mg/ml for compound D. The results were analyzed by manual counting and Alamar reduced assay.
as §2, §3
A tested compound is regarded as being active in cytotoxicity where the percentage of surviving cells after the treatment with the compound is less than 30%.

TCTP = TCTP expression in treated U937 cells (western blot); format: cell-based; settings: 24 hours, various dilutions
Method: U937 cells were treated with various dilutions of hydroxyzine, brompheniramine and promethazine for 24 hours as denoted in FIG. 23A. Starting concentrations were: 50 mg/ml for […] (“A”); 10 mg/ml for brompheniramine (“B”); and 25 mg/ml for promethazine (“C”). The proteins were isolated from these cells and loaded onto a gel for western blot analysis. A specific anti-TCTP (anti-HRF) antibody was used to visualize the location of TCTP. […] The level of actin in equal loading of extract was visualized by antiactin antibody (Santa Cruz Biotechnology). No substantial difference between the level of actin in treated and untreated cells was observed.

[5] = tested on: lymphocytes from healthy donors; test: Cytotoxicity on lymphocytes from healthy donors; format: cell-based, human; settings: 48 hours after treatment, even at 1:1,000 dilution; three healthy donors
Method: as §4
The blood from healthy donors was collected on citrate and diluted 1:1 with 0.15M NaCl. The dilution (6 ml) was loaded onto 3 ml of lymphoprep® (Nycomed), and the mixture was centrifuged at 800 g for 30 minutes at room temperature. The white cells were isolated and washed with RPMI1640 and 10% FBS. The white cells were diluted to provide 450,000 cells/m in RPMI1640/10% FSB medium. The tests for the compounds of this invention were performed according to the same procedures described in Section 5.1.1.

[6] = tested on: blastic cells from AML patients; test: Inhibition of viability of fresh leukemic cells (trypan blue exclusion); format: cell-based, human; settings: Homo sapiens, day 3; for cytotoxicity at 100 µM: 10^-4 M; for cytotoxicity at 10 µM: 10^-5 M
How it was run: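 Blasts from AML samples 1 to 5 (least to most differentiated) were incubated with or without anti-histamine derivatives, with Polaramine as negative control. Viable counts by trypan blue exclusion at day 3, with Wright-Giemsa morphology. Values are % growth inhibition versus negative control.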

U937 cells [7] = test: Curative effects on palpable tumors, U937 cells in scid/scid mice; format: in vivo; settings: positive control, treated once tumors palpable
Method: as §1, with “animals. Two different cell lines, i.e., U937 and MDA-MB-231 (breast cancer line), were used for this protocol to inoculate scid/scid mice.” for “animals.”

[8] = 72 h, MEAN over AML patients, read-out: In Vitro Percent Inhibition of Viability, MEAN
[9] = 72 h, patient ID 4, FAB AML2, read-out: In Vitro Percent Inhibition of Viability
[10] = 72 h, patient ID 14, FAB AML5, read-out: In Vitro Percent Inhibition of Viability
[11] = AML1, 72 h, patient ID 1, FAB AML1, read-out: In Vitro Percent Inhibition of Viability

Structure (SMILES): CC(CN1c2ccccc2Sc2ccccc21)N(C)C (stereo not drawn) [promethazine]
- tumor volume [1]: The same is also true for certain animals
- tumor growth compared to the negative control (U937): decrease in tumor growth
- growth / resistance of LoVo cells (LoVo cancer cells): unaffected
- growth / resistance of LoVo cells (LoVo cancer cells; listed as C): totally resistant
- PARP cleavage (induction of apoptosis) [2]: cleave PARP
- mice that developed a tumor (U937 cells [3]; 11.25 mg/kg daily intraperitoneally): one out of six
- cytotoxic activity [4]: little cytotoxic activity
- cytotoxicity [4]: very good cytotoxicity
- expression of TCTP (TCTP): inhibit the expression of TCTP
- surviving cell counts [5]: substantial

Structure (SMILES): OCCOCCN1CCN(C(c2ccccc2)c2ccc(Cl)cc2)CC1 (stereo not drawn) [hydroxyzine, hydroxyzine dihydrochloride]
- growth / resistance of LoVo cells (LoVo cancer cells; dihydrochloride): unaffected
- growth / resistance of LoVo cells (LoVo cancer cells; listed as A, dihydrochloride): totally resistant
- PARP cleavage (induction of apoptosis) [2]: cleave PARP
- cytotoxicity at 100 µM [6, 8]: 55%
- cytotoxicity at 10 µM [6, 8]: 12%
- cytotoxicity at 100 µM [6, 9]: 44%
- cytotoxicity at 10 µM [6, 9]: 9%
- cytotoxicity at 100 µM [6, 10]: 45%
- cytotoxicity at 10 µM [6, 10]: 18%
- cytotoxicity at 100 µM [6, 11]: 77%
- cytotoxicity at 10 µM [6, 11]: 10%
- cytotoxic activity [4]: little cytotoxic activity
- cytotoxicity [4]: very good cytotoxicity
- expression of TCTP (TCTP): inhibit the expression of TCTP
- surviving cell counts [5]: substantial

Structure (SMILES): Nc1ccn([C@@H]2O[C@H](CO)[C@@H](O)[C@@H]2O)c(=O)n1 [ARA-C, cytarabine]
- mice that developed a tumor (U937 cells [3]; 100 mg/kg): none of the six
- tumor development (U937 cells [7]): no tumor development
